Results taken from US7547709B2, “Chain-breaking antioxidants” (Vanderbilt University, priority 2004, dated 2009).
Where two headings read alike, the source gives them in different places. Marks after values point to notes of the source that are not given here.

Columns and labels:
[1] = for O—H BDE, absolute measured value (±2 SD): EPR equilibration; for O—H BDE, absolute measured value (±2 SD) / Experimental substituent effect on O—H BDE, 5-pyrimidinols (vi): solution phase; for O—H BDE: O—H bond dissociation enthalpy: Table A; for Experimental substituent effect on O—H BDE, 5-pyrimidinols (vi): 298 K, relative to unsubstituted (vi)
[2] = for k/alkyl: second order rate constant for reaction with alkyl radicals: Table A
[3] = Burton et al. 1985; cited from earlier work
[4] = Reaction with peroxyl radicals, oxygen consumption in inhibited autoxidation of styrene; assay type: physicochemical; conditions: for k/peroxyl: second order rate constant for reaction with peroxyl radicals: Table A; for Rate constant for reaction with peroxyl radicals: benzene, 323 K; for Rate constants with peroxyl radicals, pyrimidinol versus phenolic counterpart: (vi)/(iv) pair
[5] = open atmosphere
[6] = design: key: Not an air-stable compound; conditions: Table 2, column (iv); cited from earlier work
[7] = solution phase, 298 K, from ref 2C, cited from earlier work; for Experimental substituent effect on O—H BDE, phenols (iv): relative to unsubstituted (iv)
[8] = benzene, 298 K, reported in ref 12, cited from earlier work

Oc1cncnc1 [Example 1, 5-Pyrimidinol]
O—H BDE: O—H bond dissociation enthalpy (estimate) ([1]; Estimate based upon other results to date for other 5-pyrimidinols): 91.3^a | k/alkyl: second order rate constant for reaction with alkyl radicals [2]: 3.6 × 10^6

CCN1CCCc2c(C)c(O)c(C)c(C)c21 [Formula 3b]
Reactivity with peroxyl radicals compared to tocopherol, in words [3]: react slowly with peroxyl radicals

Cc1nc(N(C)C)nc(C)c1O [Example 5, 2-N,N-Dimethylamino-4,6-dimethyl-5-pyrimidinol]
k/peroxyl: second order rate constant for reaction with peroxyl radicals [4]: 8.6 ± 0.5 × 10^6 | Rate constant for reaction with peroxyl radicals [4]: 8.6 ± 0.5 × 10^6f M^−1 s^−1 | Deuterium kinetic isotope effect (kH/kD), peroxyl radicals ([4]; dry solvents containing D2O): 3.1 | O—H BDE, absolute measured value (±2 SD) [1]: 78.16 ± 0.25 kcal/mol | O—H BDE: O—H bond dissociation enthalpy [1]: 78.2 | O—H BDE difference versus a-TOH, experiment ([1]; relative to a-TOH): -0.1 kcal/mol | Experimental substituent effect on O—H BDE, 5-pyrimidinols (vi) [1]: -12.9 kcal/mol | k/alkyl: second order rate constant for reaction with alkyl radicals [2]: 2.9 ± 1.1 × 10^6 | Rate constant for reaction with alkyl radicals ([2]; benzene, 298 K, 5-hexenyl radical clock (H)): 2.9 ± 1.1 × 10^6 (H) M^−1 s^−1 | Rate of reaction with alkyl radicals relative to α-TOH ([2]; versus α-TOH): 5 times | Stability to air oxidation, in words [5]: without degradation by air oxidation

Cc1cc(N(C)C)cc(C)c1O [iv-d]
Air stability, footnote letter in place of O—H BDE [6]: d

α-tocopherol [a-TOH (1)]
Rate constant for reaction with peroxyl radicals [4]: 4.1 ± 0.4 × 10^6 M^−1 s^−1 | Experimental substituent effect on O—H BDE, phenols (iv) [7]: −10.0^c kcal/mol | Rate constant for reaction with alkyl radicals ([8]; 5-hexenyl clock (H)): 6.0 ± 1.5 × 10^5 (H)^e M^−1 s^−1

Cc1nc(C)c(O)c(C)n1 [Example 2, 2,4,6-Trimethyl-5-pyrimidinol]
Rate constants with peroxyl radicals, pyrimidinol versus phenolic counterpart [4]: ≤ 3 | k/peroxyl: second order rate constant for reaction with peroxyl radicals [4]: 3.3 ± 0.4 × 10^4 | Rate constant for reaction with peroxyl radicals [4]: 3.3 ± 0.4 × 10^4 M^−1 s^−1 | O—H BDE, absolute measured value (±2 SD) [1]: 85.2 ± 0.5 kcal/mol | O—H BDE: O—H bond dissociation enthalpy [1]: 85.2 | Experimental substituent effect on O—H BDE, 5-pyrimidinols (vi) [1]: -5.9 kcal/mol | k/alkyl: second order rate constant for reaction with alkyl radicals [2]: 4.6 × 10^5 | Rate constant for reaction with alkyl radicals (estimate) ([2]; benzene, 298 K, neophyl clock (N), estimate from correlations of k and β for CH3CN, EtOAc, t-BuOH): 4.6 × 10^5 (N)^c,d M^−1 s^−1 | Deuterium kinetic isotope effect (kH/kD), alkyl radicals ([2]; dry solvents containing D2O): 3.1

COc1nc(C)c(O)c(C)n1 [Example 4, 2-Methoxy-4,6-dimethyl-5-pyrimidinol]
O—H BDE: O—H bond dissociation enthalpy [1]: 82.5

Oc1ccccc1 [iv, phenol]
O—H BDE of unsubstituted phenol, absolute value [7]: (88.3) kcal/mol

Cc1cc(C)c(O)c(C)c1 [iv-b]
Rate constant for reaction with peroxyl radicals [4]: 1.1 ± 0.1 × 10^5 M^−1 s^−1 | Experimental substituent effect on O—H BDE, phenols (iv) [7]: -5.6 kcal/mol | Rate constant for reaction with alkyl radicals ([8]; neophyl clock (N)): 8.5 ± 0.2 × 10^4 (N)^e M^−1 s^−1

Cc1cc(C(C)(C)C)c(O)c(C(C)(C)C)c1 [iv-c]
Rate constant for reaction with peroxyl radicals [4]: 1.8 ± 0.3 × 10^4 M^−1 s^−1 | Experimental substituent effect on O—H BDE, phenols (iv) [7]: -7.3 kcal/mol | Rate constant for reaction with alkyl radicals ([8]; neophyl clock (N)): 4.8 ± 1.5 × 10^3 (N)^e M^−1 s^−1

Cc1nc(C(C)(C)C)c(O)c(C(C)(C)C)n1 [Example 3, 2-Methyl-4,6-di-tert-butyl-5-pyrimidinol]
Rate constants with peroxyl radicals, pyrimidinol versus phenolic counterpart [4]: roughly the same | k/peroxyl: second order rate constant for reaction with peroxyl radicals [4]: 2.2 ± 0.3 × 10^4 | Rate constant for reaction with peroxyl radicals [4]: 2.2 ± 0.3 × 10^4 M^−1 s^−1 | O—H BDE, absolute measured value (±2 SD) [1]: 84.10 ± 0.25 kcal/mol | O—H BDE: O—H bond dissociation enthalpy [1]: 84.1 | Experimental substituent effect on O—H BDE, 5-pyrimidinols (vi) [1]: -7.0 kcal/mol | k/alkyl: second order rate constant for reaction with alkyl radicals [2]: 3.2 ± 0.5 × 10^4 | Rate constant for reaction with alkyl radicals ([2]; benzene, 298 K, neophyl radical clock (N)): 3.2 ± 0.5 × 10^4 (N) M^−1 s^−1
